Experimental findings from patent US20240034737A1, “Heterocyclic Derivatives as P2X7 Receptor Antagonists” (BREYE THERAPEUTICS APS, priority 2020, published 2024) are described below.

The target in one data set is P2X7 receptor (Homo sapiens (Human), UniProt Q99572). Nature of the data set: Human P2X7 channel calcium-influx assay (Fluo-8 NW, FLIPR TETRA, Bz-ATP stimulation). The format is cell-based. The following applies: HEK-293 cells stably transfected with P2X7 receptor, Low Divalent Cation Assay Buffer, read-out: hP2X7 IC50. An outline of the steps:
(§1)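 HEK-293 cells stably expressing human or mouse P2X7, preloaded with Fluo-8 NW dye for 1 h at RT. Compounds added, Bz-ATP-evoked Ca2+ influx followed as fluorescence kinetics over 5 min on FLIPR TETRA; A438079 served as reference antagonist.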

Another data set relates to CYP4503A4. Description: CYP4503A4 metabolic induction (mRNA expression) in human cryopreserved platable hepatocytes. The data set is classed as in vitro ADME. The following applies: 10 μM test compound, two days treatment, mRNA by QuantiGene Plex 2.0. On the procedure:
In Vitro Evaluation of Test Compounds for CYP4503A4 Metabolic Induction Using Human Liver Hepatocytes.
CYP induction assessment was performed using human cryopreserved platable hepatocytes. Test compound was assessed at three or six different concentrations in duplicate.
A sandwich culture of platable cryopreserved hepatocytes was used with one day recovery period after plating. Assessment of cell morphology and confluency was performed using a phase-contrast microscope for representative wells.
The plated hepatocyte cell monolayers were treated with test compound, negative and positive controls for two days changing medium every 24 hours. On the fourth day, assessment of cell morphology and confluency was repeated to ensure cell monolayer integrity. Assessment of cell morphology and confluency was performed using a phase-contrast microscope for representative wells.
Cell monolayers were assessed for test compound cytotoxicity by an adenosine triphosphate (ATP) content assay in a separate plate.
Expression levels of mRNA for CYP1A2, CYP2B6, and CYP3A4 were evaluated by the QuantiGene® Plex 2.0 methodology.

The next data set deals with mP2X7 (Mus musculus (Mouse), UniProt Q9Z1M0). Description: mP2X7 channel calcium-influx assay (Fluo-8 NW, FLIPR TETRA, Bz-ATP stimulation). The data set is classed as cell-based. An outline of the steps: as §1

Molecules are shown by their SMILES. pIC50: −log10 of the molar value.

Chain of mP2X7 (Q9Z1M0 whole entry): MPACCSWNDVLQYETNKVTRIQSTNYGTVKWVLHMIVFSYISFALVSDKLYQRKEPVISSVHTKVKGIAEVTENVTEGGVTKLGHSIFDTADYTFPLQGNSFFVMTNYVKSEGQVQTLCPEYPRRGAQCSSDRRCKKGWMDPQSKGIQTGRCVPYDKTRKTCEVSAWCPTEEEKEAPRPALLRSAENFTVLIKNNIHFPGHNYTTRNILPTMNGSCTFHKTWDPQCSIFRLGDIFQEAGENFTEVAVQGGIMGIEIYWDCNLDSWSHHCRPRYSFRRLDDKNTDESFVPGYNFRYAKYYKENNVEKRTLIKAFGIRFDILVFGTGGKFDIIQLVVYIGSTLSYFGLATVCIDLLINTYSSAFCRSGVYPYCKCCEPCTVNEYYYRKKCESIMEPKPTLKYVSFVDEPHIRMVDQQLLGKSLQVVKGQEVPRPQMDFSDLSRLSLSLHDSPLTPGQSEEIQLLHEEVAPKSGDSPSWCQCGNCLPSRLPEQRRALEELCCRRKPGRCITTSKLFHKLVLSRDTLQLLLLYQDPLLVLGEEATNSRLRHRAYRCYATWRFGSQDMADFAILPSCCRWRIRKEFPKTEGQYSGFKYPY
Chain of P2X7 receptor (Q99572 whole entry): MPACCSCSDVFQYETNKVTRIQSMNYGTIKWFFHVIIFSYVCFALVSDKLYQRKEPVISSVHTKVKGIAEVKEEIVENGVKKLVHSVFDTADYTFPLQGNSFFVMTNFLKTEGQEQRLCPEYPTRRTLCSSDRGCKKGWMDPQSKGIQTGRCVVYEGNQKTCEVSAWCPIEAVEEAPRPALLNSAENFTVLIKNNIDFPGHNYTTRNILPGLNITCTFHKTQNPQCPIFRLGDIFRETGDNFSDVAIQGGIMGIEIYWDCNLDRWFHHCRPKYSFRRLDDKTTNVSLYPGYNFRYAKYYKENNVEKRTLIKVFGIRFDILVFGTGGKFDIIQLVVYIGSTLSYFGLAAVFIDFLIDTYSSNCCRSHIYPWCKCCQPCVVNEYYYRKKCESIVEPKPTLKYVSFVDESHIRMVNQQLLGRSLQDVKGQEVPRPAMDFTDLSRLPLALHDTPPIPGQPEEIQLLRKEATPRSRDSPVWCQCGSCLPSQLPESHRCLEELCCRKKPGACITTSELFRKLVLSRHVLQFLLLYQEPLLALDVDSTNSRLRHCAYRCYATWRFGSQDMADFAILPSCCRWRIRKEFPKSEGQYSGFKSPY

In the case of `O=C(NCC(c1scnc1C(F)F)N1CCC(Oc2cncc(F)c2)CC1)c1c(F)cccc1Cl` (stereo not shown) [Example 5, 2-chloro-N-{2-[4-(difluoromethyl)-1,3-thiazol-5-yl]-2-{4-[(5-fluoropyridin-3-yl)oxy]piperidin-1-yl}ethyl}-6-fluorobenzamide], the pIC50 (usually the negative decadic logarithm of the IC50, by convention in mol/L) on P2X7 receptor is 7.63; on mP2X7 it was 7.57. Also, in the data set on CYP4503A4, the “CYP4503A4 mRNA fold increase at 10 μM” value was determined as 5.0 fold.
For `O=C(NCC(c1scnc1C(F)F)N1CCC(COc2nc(C3CC3)ns2)CC1)c1c(F)cccc1Cl` (stereo not shown) [Example 87, 2-Chloro-N-[2-(4-{[(3-cyclopropyl-1,2,4-thiadiazol-5-yl)oxy]methyl}piperidin-1-yl)-2-[4-(difluoromethyl)-1,3-thiazol-5-yl]ethyl]-6-fluorobenzamide] the same measures were 7.43, 7.52 and 6.4 fold.
Taken in the same sequence, the figures for `O=C(NCC(c1scnc1C(F)F)N1CCC(Oc2ccncn2)CC1)c1c(F)cccc1Cl` (stereo not shown) [Example 78, 2-Chloro-N-{2-[4-(difluoromethyl)-1,3-thiazol-5-yl]-2-[4-(pyrimidin-4-yloxy)piperidin-1-yl]ethyl}-6-fluorobenzamide] were 7.14, 6.74 and 3.6 fold.
For `O=C(NCC(c1scnc1C(F)F)N1CCC(Oc2ccncc2)CC1)c1c(F)cccc1Cl` (stereo not shown) [Example 3, 2-chloro-N-{2-[4-(difluoromethyl)-1,3-thiazol-5-yl]-2-[4-(pyridin-4-yloxy)piperidin-1-yl]ethyl}-6-fluorobenzamide] the same measures were 7.42, 7.09 and 4.4 fold.
In the case of `Cc1cc(OC2CCN(C(CNC(=O)c3c(F)cccc3Cl)c3scnc3C(F)F)CC2)ccn1` (stereo not shown) [Example 73, 2-Chloro-N-{2-[4-(difluoromethyl)-1,3-thiazol-5-yl]-2-{4-[(2-methylpyridin-4-yl)oxy]piperidin-1-yl}ethyl}-6-fluorobenzamide], the pIC50 at P2X7 receptor is 7.19; at mP2X7, 7.15. Moreover, the “CYP4503A4 mRNA fold increase at 10 μM” value with CYP4503A4 is recorded as 2.4 fold.
For `Cc1cc(COC2CCN(C(CNC(=O)c3c(F)cccc3Cl)c3scnc3C(F)F)CC2)no1` (stereo not shown) [Example 8, 2-chloro-N-{2-[4-(difluoromethyl)-1,3-thiazol-5-yl]-2-{4-[(5-methyl-1,2-oxazol-3-yl)methoxy]piperidin-1-yl}ethyl}-6-fluorobenzamide], the pIC50 on P2X7 receptor was 7.32; at mP2X7 it was 6.77. In addition, in the data set with CYP4503A4, the “CYP4503A4 mRNA fold increase at 10 μM” value stood at 2.2 fold.
For `Cc1noc(C)c1COC1CCN(C(CNC(=O)c2c(F)cccc2Cl)c2scnc2C(F)F)CC1` (stereo not shown) [Example 9, 2-chloro-N-{2-[4-(difluoromethyl)-1,3-thiazol-5-yl]-2-{4-[(dimethyl-1,2-oxazol-4-yl)methoxy]piperidin-1-yl}ethyl}-6-fluorobenzamide], the pIC50 at P2X7 receptor was 7.19; at mP2X7, 7.27. Besides, in the data set with CYP4503A4, the “CYP4503A4 mRNA fold increase at 10 μM” value worked out at 2.6 fold.
Regarding `Cc1nsc(OC2CCN(C(CNC(=O)c3c(F)cccc3Cl)c3scnc3C(F)F)CC2)n1` (stereo not shown) [Example 11, 2-Chloro-N-{2-[4-(difluoromethyl)-1,3-thiazol-5-yl]-2-{4-[(3-methyl-1,2,4-thiadiazol-5-yl)oxy]piperidin-1-yl}ethyl}-6-fluorobenzamide], the pIC50 was 7.30 on P2X7 receptor and 6.74 on mP2X7. Besides, the “CYP4503A4 mRNA fold increase at 10 μM” value in the data set with CYP4503A4 is 7.9 fold.
For `N#Cc1cc(OC2CCN(C(CNC(=O)c3c(F)cccc3Cl)c3scnc3C(F)F)CC2)ccn1` (stereo not shown) [Example 127, 2-Chloro-N-(2-{4-[(2-cyanopyridin-4-yl)oxy]piperidin-1-yl}-2-[4-(difluoromethyl)-1,3-thiazol-5-yl]ethyl)-6-fluorobenzamide] the same measures were 7.31, 7.21 and 6.3 fold.
In the case of `N#Cc1cncc(OCC2CCN(C(CNC(=O)c3c(F)cccc3Cl)c3scnc3C(F)F)CC2)c1` (stereo not shown) [Example 91, 2-Chloro-N-[2-(4-{[(5-cyanopyridin-3-yl)oxy]methyl}piperidin-1-yl)-2-[4-(difluoromethyl)-1,3-thiazol-5-yl]ethyl]-6-fluorobenzamide], the pIC50 at P2X7 receptor is 7.40; on mP2X7, 7.41. Further, the “CYP4503A4 mRNA fold increase at 10 μM” value in the data set on CYP4503A4 came to 7.4 fold.
Taken in the same sequence, the figures for `O=C(NCC(c1scnc1C(F)F)N1CCC(Oc2cccnc2)CC1)c1c(F)cccc1Cl` (stereo not shown) [Example 2, 2-chloro-N-{2-[4-(difluoromethyl)-1,3-thiazol-5-yl]-2-[4-(pyridin-3-yloxy)piperidin-1-yl]ethyl}-6-fluorobenzamide] were 7.44, 7.43 and 4.8 fold.
For `O=C(NCC(c1scnc1C(F)F)N1CCC(Oc2ncccc2F)CC1)c1c(F)cccc1Cl` (stereo not shown) [Example 7, 2-chloro-N-{2-[4-(difluoromethyl)-1,3-thiazol-5-yl]-2-{4-[(3-fluoropyridin-2-yl)oxy]piperidin-1-yl}ethyl}-6-fluorobenzamide] the same measures were 7.49, 7.54 and 5.6 fold.
On to `O=C(NCC(c1scnc1C(F)F)N1CCC(Oc2ccnc3cccnc23)CC1)c1c(F)cccc1Cl` (stereo not shown) [Example 48, 2-Chloro-N-{2-[4-(difluoromethyl)-1,3-thiazol-5-yl]-2-[4-(1,5-naphthyridin-4-yloxy)piperidin-1-yl]ethyl}-6-fluorobenzamide], for which the results for the pIC50 on P2X7 receptor and at mP2X7 were 7.13 and 7.44, respectively. Besides, the “CYP4503A4 mRNA fold increase at 10 μM” value with CYP4503A4 is reported as 7.6 fold.
For `O=C(NCC(c1scnc1C(F)F)N1CCC(Oc2ccnc(F)c2)CC1)c1c(F)cccc1Cl` (stereo not shown) [Example 80, 2-Chloro-N-{2-[4-(difluoromethyl)-1,3-thiazol-5-yl]-2-{4-[(2-fluoropyridin-4-yl)oxy]piperidin-1-yl}ethyl}-6-fluorobenzamide] the same measures were 7.69, 7.43 and 6.0 fold.
For `Cc1nsc(OCC2CCN(C(CNC(=O)c3c(F)cccc3Cl)c3scnc3C(F)F)CC2)n1` (stereo not shown) [Example 85, 2-Chloro-N-{2-[4-(difluoromethyl)-1,3-thiazol-5-yl]-2-(4-{[(3-methyl-1,2,4-thiadiazol-5-yl)oxy]methyl}piperidin-1-yl)ethyl}-6-fluorobenzamide] the same measures were 7.49, 7.16 and 9.7 fold.
For `O=C(NCC(c1scnc1C(F)F)N1CCC(COc2nc3ccccc3s2)CC1)c1c(F)cccc1Cl` (stereo not shown) [Example 93, N-(2-{4-[(1,3-Benzothiazol-2-yloxy)methyl]piperidin-1-yl}-2-[4-(difluoromethyl)-1,3-thiazol-5-yl]ethyl)-2-chloro-6-fluorobenzamide] the same measures were 7.36, 7.64 and 6.5 fold.
Regarding `O=C(NCC(c1scnc1C(F)F)N1CCC(Oc2cncc3nncn23)CC1)c1c(F)cccc1Cl` (stereo not shown) [Example 45], the pIC50 at P2X7 receptor is 6.60; on mP2X7, 6.26. Also, in the data set with CYP4503A4, the “CYP4503A4 mRNA fold increase at 10 μM” value was 1.9 fold.
For `N#Cc1cc(OCC2CCN(C(CNC(=O)c3c(F)cccc3Cl)c3scnc3C(F)F)CC2)ccn1` (stereo not shown) [Example 110, 2-Chloro-N-[2-(4-{[(2-cyanopyridin-4-yl)oxy]methyl}piperidin-1-yl)-2-[4-(difluoromethyl)-1,3-thiazol-5-yl]ethyl]-6-fluorobenzamide] the same measures were 7.39, 7.60 and 6.5 fold.
For `O=C(NCC(c1scnc1C(F)F)N1CCC(Oc2cncc(Cl)n2)CC1)c1c(F)cccc1Cl` (stereo not shown) [Example 76, 2-Chloro-N-(2-{4-[(6-chloropyrazin-2-yl)oxy]piperidin-1-yl}-2-[4-(difluoromethyl)-1,3-thiazol-5-yl]ethyl)-6-fluorobenzamide] the same measures were 7.36, 7.54 and 5.1 fold.
Take `O=C(NCC(c1scnc1C(F)F)N1CCC(COc2nccnc2F)CC1)c1c(F)cccc1Cl` (stereo not shown) [Example 106, 2-Chloro-N-{2-[4-(difluoromethyl)-1,3-thiazol-5-yl]-2-(4-{[(3-fluoropyrazin-2-yl)oxy]methyl}piperidin-1-yl)ethyl}-6-fluorobenzamide]: the values for the pIC50 on P2X7 receptor and at mP2X7 were 7.40 and 7.52, respectively. Moreover, the “CYP4503A4 mRNA fold increase at 10 μM” value with CYP4503A4 is listed as 4.9 fold.
Regarding `N#Cc1ncccc1OC1CCN(C(CNC(=O)c2c(F)cccc2Cl)c2scnc2C(F)F)CC1` (stereo not shown) [Example 18, 2-Chloro-N-(2-{4-[(2-cyanopyridin-3-yl)oxy]piperidin-1-yl}-2-[4-(difluoromethyl)-1,3-thiazol-5-yl]ethyl)-6-fluorobenzamide], the pIC50 was 7.39 on P2X7 receptor and 6.73 at mP2X7.
On to `O=C(NCC(c1scnc1C(F)F)N1CCC(COc2nccs2)CC1)c1c(F)cccc1Cl` (stereo not shown) [Example 82, 2-chloro-N-{2-[4-(difluoromethyl)-1,3-thiazol-5-yl]-2-{4-[(1,3-thiazol-2-yloxy)methyl]piperidin-1-yl}ethyl}-6-fluorobenzamide], for which the pIC50 is 7.82 on P2X7 receptor and 7.38 at mP2X7.
